Data on nine compounds can be found in PMC10351190, “Isolation and identification of active ingredients and biological activity of Dioscorea nipponica Makino” (BMC Complementary Medicine and Therapies, 2023).

The target of this test is T1, α-glucosidase.
T1 construct: gene MAL12
In words: pNPG hydrolysis, absorbance […] nm. Type of test: biochemical. Conditions: pNPG substrate ([…] stock), pH […] °C, […] phosphate.
As for `COc1c(O)cc(C[C@H](O)c2ccccc2)c(C(=O)O)c1O` [compound 1, diosniposide E], the IC50 (in general, the concentration needed to halve the response being measured) is more than 800 µM.
Then `O=C(O)c1c(O)cc(O)cc1C[C@H](O)c1ccccc1` [compound 2, diosniponol C], with more than 800 µM; and `O=C(/C=C/C=C/c1ccc(O)cc1)CCc1ccc(O)cc1` [compound 3, 1,7-bis(4-hydroxyphenyl)hepta-4E,6E-dien-3-one], with 1.6 ± 0.17 µM.
Compound `COc1cc2c(ccc3cc(O)cc(OC)c32)cc1O` [compound 4, 3,5-dimethoxyphenanthrene-2,7-diol] gave an IC50 of 31.4 ± 0.18 µM.
`O=C(O)c1cc(O)c(O)c(O)c1` [compound 5, gallic acid] registered an IC50 of more than 800 µM.
Then `COC(=O)c1cc(O)c(O)c(O)c1` [compound 6, methyl gallate], with more than 800 µM; and `COc1cc(C(=O)O)ccc1O` [compound 7, vanillic acid], with more than 800 µM; and `COc1cc2c(ccc3c(-c4c(O)cc(OC)c5c4ccc4cc(O)c(OC)cc45)c(O)cc(OC)c32)cc1O` [compound 8, 2,2',7,7'-tetrahydroxy-4,4',6,6'-tetramethoxy-1,1'-biphenanthrenes], with more than 800 µM.
For `O=c1cc(-c2ccc(O)cc2)oc2cc(O)cc(O)c12` [compound 9, apigenin] the value was more than 800 µM.
